≈ marks a conversion by molar mass, not a printed value.

The test system of series [1] is male Sprague-Dawley (SD) rats. Nature of the series: Carrageenan-induced foot edema in rats (CFE). Format: in vivo. The following applies: rat, paw volume 3 hours after Carrageenan. As to the method: An appropriate amount of a compound of this invention suspended in 1% methylcellulose (MC) solution was administered to male Sprague-Dawley (SD) rats weighing 150˜200 g by oral gavage. The volume of the administered vehicle for a compound of this invention was controlled to be smaller than 10 ml/kg body weight of the animal. One hour later, 0.1 ml of 1% Carrageenan saline solution was directly injected into the right paw of the rats to induce edema in the paw. The paw volumes at 0 hour and at 3 hours after the injection of Carrageenan were measured by using a displacement plethysmometer (Ugo Basile, Italy). The paw volumes were used to calculate % inhibition of CFE by an amount of a compound of this invention according to the following equation.
% Inhibition of CFE=(1−Δtreated/Δcontrol)×100
wherein Δtreated=[paw volume at three hours after the Carrageenan injection−paw volume right after Carrageenan injection] for a drug-administered rat, and Δcontrol=[paw volume at three hours after the Carrageenan injection−paw volume right after Carrageenan injection] for a rat without drug administration.
In order to determine the inhibitory activity of a compound of this invention at a dose, usually 5 to 8 animals were used both for drug-treated group and for control group.

Another series deals with ICR mice. Nature of the series: Acetic acid-induced writhing test. The settings on record: oral gavage. The class given is in vivo, mouse. The method, then: ICR mice weighing 18˜22 g were maintained in a controlled lighting environment (12 hours on/12 hours off) and fasted overnight prior analgesic testing. Mice were administered with a compound of this invention dissolved in 10:10:80 ethanol/Tween 80/saline or vehicle only by oral gavage. The administered vehicle volume was controlled to be 10 ml/kg body weight. One hour later, the animals were treated with 0.2 ml of 1.2% acetic acid by peritoneal injection. 6 minutes later, the number of abdominal constrictions was counted for a 6 minutes period. The antinociceptive activity was expressed as the reduction in the number of abdominal constrictions, compared with that of the placebo group [J. Med. Chem. 39, 4942 (1996)]. ED50 of the mouse writhing test denotes a dose level at which the number of abdominal constrictions is half that of the placebo group. Ten animals per group were used for this study.

For series [2], the system named is male SD rats. Nature of the series: Carrageenan-induced thermal hyperalgesia assay. Format: in vivo, rat. The settings on record: 3 hours. The method, then:
Male SD rats weighing 170˜220 g were fasted but with free access to water for at leat 16 hours prior to testing. The rats were administered with a compound of this invention suspended in 20 ml 0.5% methylcellulose/0.025% Tween-20, or with vehicle only. Then the rats were given […] of 1% carrageenan in saline or […] saline only into the plantar surface of the left hindpaw by injection. Three hours later, the nociceptive responses to thermal stimuli were assessed as follows: Rats, which were placed in a transparent plastic chamber with a glass floor, were allowed to acclimate to their environment for 10 minutes prior to the testing. The withdrawal latency period in seconds was determined for the control and the compound treated group, and a percent inhibition in the withdrawal latency was calculated to estimate the analgesic effect of the compound [Pain 32, 77 (1988)]. In this study 6 animals were used for each group.

The subject of series [3] is male SD rats. Nature of the series: Antiinflammatory potency by adjuvant arthritis (AA). The class given is in vivo. The following applies: daily oral dose day 14 to day 22, rat. As to the method: Arthritis was induced in male SD rats weighing 180-200 g by subcutaneous injection of Mycobacterium butyricum mixed in 0.1 ml of incomplete Freund's adjuvanat into the base of the tail. The foot volumes were measured using a displacement plethysomometer 14 days after the injection of the adjuvant. Animals with paw volumes greater than the normal paw volumes (without the adjuvant treatment) by 0.37 ml were selected, and then randomized. A designated daily dose of a compound of this invention, which was suspended in 1% aqueous methylcellulose solution, was administered to the randomized rats with arthritis by oral gavage daily once beginning on day 14 after the injection of the adjuvant. The administration of the compound continued till day 22 after the injection of the adjuvant, and the paw volumes were measured on daily basis using a displacement plethysmometer.
% Inhibition of AA=(1−Δtreated/Δcontrol)×100
wherein Δtreated=[(paw volume at day 22)/(paw volume at day 14)−1] for a drug-administered rat, and Δcontrol=[(paw volume at day 22)/(paw volume at day 14)−1] for a rat without drug administration.
ED50 value was determined b a dose-response curve for each compound.

A further series addresses T1, COX-2 (Mus musculus, UniProt Q05769).
T1 sequence (Q05769 18-604): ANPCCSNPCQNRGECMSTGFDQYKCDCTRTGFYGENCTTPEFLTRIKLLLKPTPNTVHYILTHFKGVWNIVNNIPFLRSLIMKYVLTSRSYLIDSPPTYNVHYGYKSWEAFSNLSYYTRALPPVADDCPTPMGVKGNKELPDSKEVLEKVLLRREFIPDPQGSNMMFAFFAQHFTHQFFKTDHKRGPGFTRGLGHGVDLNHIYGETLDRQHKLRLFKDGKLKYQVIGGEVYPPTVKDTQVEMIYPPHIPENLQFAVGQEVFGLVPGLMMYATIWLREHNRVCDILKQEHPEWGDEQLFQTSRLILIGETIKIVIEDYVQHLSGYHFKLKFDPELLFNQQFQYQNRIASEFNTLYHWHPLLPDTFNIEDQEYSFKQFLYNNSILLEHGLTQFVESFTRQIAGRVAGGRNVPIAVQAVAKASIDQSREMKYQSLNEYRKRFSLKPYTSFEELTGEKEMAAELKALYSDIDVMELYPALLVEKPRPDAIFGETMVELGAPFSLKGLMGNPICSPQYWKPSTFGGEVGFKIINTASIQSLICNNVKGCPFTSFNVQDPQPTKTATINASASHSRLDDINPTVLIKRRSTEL
Nature of the series: Evaluation of COX-2 activity: PGE2 formation in aspirin-treated, LPS-stimulated mouse peritoneal macrophages. The class given is cell-based. The procedure, abridged: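 C57BL/6 peritoneal macrophages treated with 500 μM aspirin to block COX-1, adhered, then stimulated with 10 μg/ml LPS for 16 h at 37 °C to induce COX-2.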

In the next series the target is T2, COX-1 (Mus musculus, UniProt P22437).
T2 sequence (P22437 27-602): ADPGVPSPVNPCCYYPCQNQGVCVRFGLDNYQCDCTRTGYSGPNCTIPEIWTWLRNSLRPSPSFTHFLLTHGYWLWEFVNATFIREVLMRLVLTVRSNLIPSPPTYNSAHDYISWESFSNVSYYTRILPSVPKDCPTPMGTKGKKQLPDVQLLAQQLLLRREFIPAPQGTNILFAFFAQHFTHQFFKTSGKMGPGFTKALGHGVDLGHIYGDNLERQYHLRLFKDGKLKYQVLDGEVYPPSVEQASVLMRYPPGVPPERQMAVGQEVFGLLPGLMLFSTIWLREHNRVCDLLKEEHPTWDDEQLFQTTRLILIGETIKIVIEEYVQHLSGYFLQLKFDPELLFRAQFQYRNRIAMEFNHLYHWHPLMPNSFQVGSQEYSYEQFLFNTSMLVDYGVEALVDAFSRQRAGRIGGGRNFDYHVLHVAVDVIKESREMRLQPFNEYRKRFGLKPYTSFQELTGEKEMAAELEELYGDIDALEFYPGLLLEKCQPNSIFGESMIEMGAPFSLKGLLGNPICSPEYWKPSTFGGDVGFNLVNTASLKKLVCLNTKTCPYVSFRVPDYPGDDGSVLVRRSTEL
Nature of the series: Evaluation of COX-1 activity: PGE2 formation in mouse peritoneal macrophages without aspirin and LPS treatment. The class given is cell-based. The procedure, abridged: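 Peritoneal macrophages from C57BL/6 mice, without aspirin or LPS treatment, were plated at 1×10^6 cells/ml and fixed 2 h at 37 °C. Cells were preincubated 10 min, then given 10 μM arachidonic acid plus compound for 10 min; PGE2 was measured by RIA or EIA. IC50 came from 4–5 concentrations.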

Series [4] in a line: Pharmacokinetic studies in rats. The class given is in vivo, rat. The method, then: An appropriate amount of a compound suspended 1% aqueous methylcellulose solution was administered to a male SD rat by oral gavage. Blood samples were collected from the retro-orbital sinus at designated times over 24˜48 hours. Plasma was separated from each blood sample by centrifugation and the plasma was stored at 4° C. until analysis. The plasma samples prepared thereby were subjected to analysis by reverse phase HPLC (high performance liquid chromatography) using an appropriate internal standard.

The next series concerns male SD rat. Nature of the series: Gastric safety studies (Ulcer Index). Format: in vivo. The settings on record: daily dose 30 mg/kg body weight oral for 7 days, mean of animals' scores. The method, then:
Gastric safety for compounds of this invention was evaluated as follows [Otterness et al., Laboratory Models for Testing Nonsteroidal Anti-inflammatory Drugs in Nonsteroidal Anti-inflammatory Drugs; ed John Wiley & Sons pp 217-227 (1985); Wiley Interscience; New York]: A designated dose of a compound of this invention suspended in 1% methylcellulose solution was administered daily once for 7 days to a male SD rat by oral gavage. The animal was sacrificed and the inner wall of the stomach was examined visually 4 hours after the last administration (the 7th day administration). The gastric safety was assessed by the “Ulcer Index” as defined as the following scores: […]
Score 1: apparently normal stomach.
Score 2: one or more than one ulcer site of pin-point size only.
Score 3: erosions of 2 or fewer than 2, which may be accompanied by ulcers of pin-point size (an erosion is defied by any ulcerative lesion of any dimension greater than 1 mm).
Score 4: erosions more than 2, which may be accompanied by ulcers of pin-point size.
Score 5: erosions accompanied by hemorrhage.
In evaluating the gastric safety of a compound of this invention, usually 8 animals were used. The ulcer index for a compound was calculated by averaging of the ulcer index of each animal. The following Table 5 illustrates gastric safety of some COX-2 selective inhibitors of this invention.

As usually defined, the % Inhibition is the relative decrease from the control value, in per cent. Higher therefore signals a response far below the control. Regarding `COc1ccc2c(c1)c(CC(=O)O)c(C)n2C(=O)c1ccc(Cl)cc1` [indomethacin, reference compound], the “% Inhibition (CFE)” value in series [1] (oral dose 1 mg/kg body weight) came to 28%. Moreover, in the series with ICR mice, the “ED50 (mouse writhing)” value is listed as 7.4 mg/kg body weight. Besides, the “% Inhibition at 1.0 mg/kg body weight (rat hyperalgesia)” value in the series with male SD rats [2] was determined as 45%.

By melting point is commonly meant the temperature of the solid-liquid transition. Molecule `CC1(C)OC(c2ccc(S(C)(=O)=O)cc2)=C(c2cccc(C(F)(F)F)c2)C1=O` [Example 14] showed a melting point of 115 to 116 °C. Further, in series [1] (oral dose 3 mg/kg body weight), the “% Inhibition (CFE)” value came out at 32%. The “Adjuvant Arthritis ED50” value with male SD rats [3] amounted to 0.06 mg/kg body weight.

`CC1(C)OC(c2ccc(S(C)(=O)=O)cc2)=C(c2cccc(Cl)c2)C1=O` [Example 62, 4-(3-Chlorophenyl)-2,2-dimethyl-5-{4-(methylsulfonyl)phenyl}-3(2H)-furanone] gave a melting point of 151 to 152 °C. Also, the “IC50, μg/ml COX-2” value against COX-2 stood at 0.01 µg/mL (≈ 0.0265 µM). Also, the “IC50, μg/ml COX-1” value on COX-1 came to 2 µg/mL (≈ 5.31 µM). In series [4] (metabolite in plasma after oral administration of Example 393 to a SD rat at 10 mg/kg body weight (FIG. 1)), the “amounts detected in the plasma” value was “appreciable amounts”.

Take `C[S+]([O-])c1ccc(C2=C(c3cccc(Cl)c3)C(=O)C(C)(C)O2)cc1` (centres unmarked) [Example 393, 4-(3-Chlorophenyl)-2,2-dimethyl-5-{4-(methylsulfinyl)phenyl}-3(2H)-furanone]: the “IC50, μg/ml COX-2” value at COX-2 stood at 0.3 µg/mL (≈ 0.831 µM). Further, at COX-1, the “IC50, μg/ml COX-1” value was determined as 5 µg/mL (≈ 13.9 µM). In series [4] (Example 393 orally administered to a SD rat at 10 mg/kg body weight, plasma, HPLC (FIG. 1)), the “biotransformation of the sulfoxide group into the sulfonyl group” value is given as “biotransformed into the sulfonyl group”.

With `CC(=O)c1ccc(C2=C(c3ccc(S(C)(=O)=O)cc3)OC(C)(C)C2=O)cc1` [Example 10, 4-(4-Acetylphenyl)-2,2-dimethyl-5-{4-(methylsulfonyl)phenyl}-3(2H)-furanone], the “IC50, μg/ml COX-2” value on COX-2 was found to be 0.3 µg/mL (≈ 0.78 µM). Also, the “IC50, μg/ml COX-1” value at COX-1 is 50 µg/mL (≈ 130 µM). Besides, the “Ulcer Index (1˜5)” value with male SD rat was 1.2 ± 0.4.

As for `CC1(C)OC(c2ccc(S(C)(=O)=O)c(Cl)c2)=C(c2cccc(F)c2)C1=O` [Example 359], the melting point was in the range of 163 to 164 °C. At COX-2, the “IC50, μg/ml COX-2” value was 0.02 µg/mL (≈ 0.0507 µM). Besides, the “IC50, μg/ml COX-1” value at COX-1 is 200 µg/mL (≈ 507 µM). Moreover, the “% Inhibition (CFE)” value in series [1] (oral dose 3 mg/kg body weight) was 28%.
